Measured values taken from patent US4764589A, “[N-alpha-acyl,8-glycine, des-19-leucine]-calcitonin” (Rorer Pharmaceutical Corporation, priority 1987, dated 1988).
Where a SMILES comes first, the peptide text is derived from it. Bridges are numbered along the chain shown (N, C = ends). The star is where a group is joined. Propionyl = CCC(=O)*

Test system: serum calcium concentration
Method: Biological Assay of Calcitonin Analogs in Vivo
The biological potency of [N-alpha-Propionyl, 8-glycine, des-19-leucine] salmon calcitonin was determined by comparing the reduction of serum calcium concentration which followed administration by graded doses of [N-alpha-Propionyl, Gly^8, des-Leu^19 ]-SCT and synthetic salmon calcitonin standard. Rats were divided into four groups of seven animals, and each group was assigend at random to a dose of standard or test solution. Low and high doses were chosen from the linear portion of the dose-response curve. For the salmon calcitonin standard, the values were 0.7 and 2.1 ng. peptide/100 g. BW. Peptides were given by subcutaneous injection (0.2 ml/100 g. BW) and blood was withdrawn 1 hour later for serum calcium determination. Sera are processed and analyzed within two hours of collection.

Row | Structure (SMILES) | biological potency (rat, in vivo, sc) | biological potency of the standard, independently determined (standard salmon calcitonin used in the assay)
1 | CCC(=O)N[C@H]1CSSC[C@@H](C(=O)NCC(=O)N[C@@H](CC(C)C)C(=O)NCC(=O)N[C@@H](CCCCN)C(=O)N[C@@H](CC(C)C)C(=O)N[C@@H](CO)C(=O)N[C@@H](CCC(N)=O)C(=O)N[C@@H](CCC(=O)O)C(=O)N[C@@H](CC(C)C)C(=O)N[C@@H](Cc2c[nH]cn2)C(=O)N[C@@H](CCCCN)C(=O)N[C@@H](CCC(N)=O)C(=O)N[C@H](C(=O)N[C@@H](Cc2ccc(O)cc2)C(=O)N2CCC[C@H]2C(=O)N[C@@H](CCCNC(=N)N)C(=O)N[C@H](C(=O)N[C@@H](CC(N)=O)C(=O)N[C@H](C(=O)NCC(=O)N[C@@H](CO)C(=O)NCC(=O)N[C@H](C(=O)N2CCC[C@H]2C(N)=O)[C@@H](C)O)[C@@H](C)O)[C@@H](C)O)[C@@H](C)O)NC(=O)[C@H]([C@@H](C)O)NC(=O)[C@H](CO)NC(=O)[C@H](CC(C)C)NC(=O)[C@H](CC(N)=O)NC(=O)[C@H](CO)NC1=O [[N alpha-propionyl, 8-glycine, des-19-leucine] salmon calcitonin] (Propionyl-CSNLSTCGLGKLSQELHKQTYPRTNTGSGTP-NH2; disulfide 1-7) | 9,700 IU/mg | –
2 | CC(C)C[C@H](NC(=O)[C@H](CCCCN)NC(=O)CNC(=O)[C@H](CC(C)C)NC(=O)[C@@H](NC(=O)[C@@H]1CSSC[C@H](N)C(=O)N[C@@H](CO)C(=O)N[C@@H](CC(N)=O)C(=O)N[C@@H](CC(C)C)C(=O)N[C@@H](CO)C(=O)N[C@@H]([C@@H](C)O)C(=O)N1)C(C)C)C(=O)N[C@@H](CO)C(=O)N[C@@H](CCC(N)=O)C(=O)N[C@@H](CCC(=O)O)C(=O)N[C@@H](CC(C)C)C(=O)N[C@@H](Cc1c[nH]cn1)C(=O)N[C@@H](CCCCN)C(=O)N[C@@H](CC(C)C)C(=O)N[C@@H](CCC(N)=O)C(=O)N[C@H](C(=O)N[C@@H](Cc1ccc(O)cc1)C(=O)N1CCC[C@H]1C(=O)N[C@@H](CCCNC(=N)N)C(=O)N[C@H](C(=O)N[C@@H](CC(N)=O)C(=O)N[C@H](C(=O)NCC(=O)N[C@@H](CO)C(=O)NCC(=O)N[C@H](C(=O)N1CCC[C@H]1C(N)=O)[C@@H](C)O)[C@@H](C)O)[C@@H](C)O)[C@@H](C)O [standard salmon calcitonin, Salmon calcitonin] | – | greater than 4,000 IU/mg
